Laboratory results taken from ChEMBL document CHEMBL6177993, “De Novo 3-(Phenylcarbamoyl) Benzoate Analogues: Efficacy against Multidrug-Resistant S. aureus and Elucidation of the Biodistribution Profile” (J Med Chem, 2025).
Converted amounts (≈) assume the structure as drawn. The source made the active and inactive calls. No cut-off for these calls is given here.

Columns and labels:
[1] = system: Staphylococcus aureus; assay: Antibacterial activity against Staphylococcus aureus ATCC 29213 assessed as reduction in bacterial growth measured after 18 to 24 hrs by broth microdilution method; assay type: functional; conditions: time 18-24 hrs
[2] = system: Staphylococcus aureus; assay: Antibacterial activity against methicillin-sensitive Staphylococcus aureus ATCC 29213 assessed as reduction in bacterial growth measured after 18 to 24 hrs by broth microdilution method; assay type: functional; conditions: time 18-24 hrs
[3] = system: Staphylococcus aureus; assay: Antibacterial activity against methicillin-resistant Staphylococcus aureus NRS 186 assessed as reduction in bacterial growth measured after 18 to 24 hrs by broth microdilution method; assay type: functional; conditions: time 18-24 hrs
[4] = system: Staphylococcus aureus; assay: Antibacterial activity against methicillin-resistant Staphylococcus aureus NRS 191 assessed as reduction in bacterial growth measured after 18 to 24 hrs by broth microdilution method; assay type: functional; conditions: time 18-24 hrs
[5] = system: Staphylococcus aureus; assay: Antibacterial activity against methicillin-resistant Staphylococcus aureus NRS 194 assessed as reduction in bacterial growth measured after 18 to 24 hrs by broth microdilution method; assay type: functional; conditions: time 18-24 hrs
[6] = system: Staphylococcus aureus; assay: Inhibition of biofilm in Staphylococcus aureus ATCC 29213 at 2 times MIC measured after 12 hrs by crystal violet staining based analysis relative to control; assay type: functional
[7] = system: Staphylococcus aureus; assay: Antibiofilm activity in Staphylococcus aureus ATCC 29213 assessed as disruption of preformed biofilm at 20 times MIC measured after 24 hrs by crystal violet staining based assay relative to control; assay type: functional
[8] = system: Staphylococcus aureus; assay: Antibacterial activity against Staphylococcus aureus ATCC 29213 measured after 20 passages; assay type: functional, organism-based
[9] = system: Staphylococcus aureus; assay: Antibacterial activity against Staphylococcus aureus ATCC 29213 infected in female BALB/c mouse skin infection model assessed as reduction in number of bacterial cells in skin at 10 times MIC pre-infected with bacteria followed by compound addition and measured after 24 hrs; assay type: functional, organism-based
[10] = system: Staphylococcus aureus; assay: Antibacterial activity against Staphylococcus aureus ATCC 29213 infected in female BALB/c mouse skin infection model assessed as reduction in bacterial load at 10 times MIC pre-infected with bacteria followed by compound addition and measured after 24 hrs relative to control; assay type: functional; parameters: scale not given: the % may be the effect or the level left
[11] = Toxicity in female BALB/c mouse assessed as effect on lung measured after 24 hrs by H and E staining based analysis; assay type: tissue-based; conditions: in vivo
[12] = Drug distribution in female BALB/c mouse heart measured after 24 hrs; assay type: ADME, tissue-based; conditions: in vivo
[13] = Drug distribution in female BALB/c mouse skin measured after 24 hrs; assay type: ADME, tissue-based, Skin of body; conditions: in vivo
[14] = Drug distribution in female BALB/c mouse liver measured after 24 hrs; assay type: ADME, tissue-based; conditions: in vivo

Work on O=C(O)c1cccc(C(=O)Nc2c(C(c3ccc(F)cc3)c3ccc(F)cc3)cc(Cl)cc2C(c2ccc(F)cc2)c2ccc(F)cc2)c1 yielded an MIC [1] of 1 µg/mL (≈ 1.47 µM), an MIC [2] of 2 µg/mL (≈ 2.94 µM) and an MIC [3] of 2 µg/mL (≈ 2.94 µM). The MIC [4] was 2 µg/mL (≈ 2.94 µM), the MIC [5] was 2 µg/mL (≈ 2.94 µM) and the “inhibition (INH)” value [6] was 95%. The Activity [7] was 18.42%, the Activity [8] was “Active” and the Activity [9] was “Active”. For the same molecule, the Activity [10] was ~83%, the Activity [11] was “Non-toxic” and the Drug uptake [12] was 7.7 nmol/mg. The Drug uptake [13] was 5.93 nmol/mg and the Drug uptake [14] was 3.92 nmol/mg.
